This note sets out measurements from patent US7713969B2, “Compositions and methods for treatment of cancer” (ArQule, Inc., priority 2005, dated 2010).

As usually defined, the IC50 is the concentration at which inhibition is half-maximal. One may read the melting point as the temperature of the solid-liquid transition.

The subject of data set [1] is Recombinant Protein Kinase C. The experiment in a line: Protein Kinase C kinase reaction, Histone H1, autoradiography (Example 79). Type of data set: biochemical. To be noted: 0.05, 0.5, or 10 μM, 15 minutes at room temperature. The protocol:
Recombinant Protein Kinase C (Calbiochem) (100 ng) was incubated with (±)-cis-3-(5,6-dihydro-4H-pyrrolo[3,2,1-ij]quinolin-1yl)-4(1H-indol-3-yl)pyrrolidine-2,5-dione or (±)-trans-3-(5,6-dihydro-4H-pyrrolo[3,2,1-ij]quinolin-1-yl)-4(1H-indol-3-yl)pyrrolidine-2,5-dione at 0.05, 0.5, or 10 μM for 15 minutes at room temperature. Subsequently, a radioactive labeling mix in kinase buffer (20 mM Tris-HCl pH 7.5, 10 mM MgCl2) containing 20 μM ATP, 0.2 μCi/μl γ^32P-ATP, 0.2 μg/μl Histone H1 (Upstate) was added to each sample. The kinase reaction was carried out for 5 minutes at room temperature. Reaction products were analyzed by 12% SDS-PAGE and autoradiography.

In data set [2] the test system is MDA-MB-231. The experiment in a line: Cell viability MTS assay. The format is cell-based, human. The gist of the method:
(§1)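 Tetrazolium (MTS) viability read after 72 hours of compound treatment in DMEM with 15% FBS, 10 mM L-glutamine and 10 mM Hepes pH 7.5. IC50 derived by non-linear regression relative to 0.33% DMSO controls.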
On the technique in general: Tetrazolium assays rely on reduction of a dye to a coloured formazan, in cell work by metabolically active cells.

The test system of data set [3] is HT29. Nature of the data set: Cell viability MTS assay. The format is cell-based, human. A digest of the protocol:
as §1

In data set [4] the test system is MDA-MB-231 cells or Paca-2 cells. The experiment in a line: Cell survival in six-well plates, Wright-Giemsa stain (Example 77). Type of data set: cell-based. The following applies: Homo sapiens; 0.1-2 μM, cultures observed 10-15 days; cell line of the IC50 not stated. The protocol: Exponentially growing MDA-MB-231 cells or Paca-2 cells were seeded at 1,000 cells per well in six-well plates and allowed to attach for 24 hours. MDA-MB-231 and Paca-2 cells were cultured in DMEM supplemented with 10% (v/v) fetal calf serum (FCS) and 5 ml Penicillin/Streptomycin at 37° C. in 5% CO2. MDA-MB-231 and Paca-2 were established estrogen receptor negative human breast cancer and pancreatic carcinoma cell lines, respectively. (±)-cis-3-(5,6-dihydro-4H-pyrrolo[3,2,1-ij]quinolin-1yl)-4(1H-indol-3-yl)pyrrolidine-2,5-dione or (±)-trans-3-(5,6-dihydro-4H-pyrrolo[3,2,1-ij]quinolin-1-yl)-4(1H-indol-3-yl)pyrrolidine-2,5-dione were each dissolved at a concentration of 10 mM in DMSO, and separately added to cells at a concentration of 0.1, 0.25, 0.5, 1 or 2 μM. Control plates received DMSO alone, at the same percentage of total culture volume as that administered in conjunction with the highest concentration of drug. Cell cultures were observed daily for 10-15 days, then fixed and stained with modified Wright-Giemsa stain (Sigma). Treatment with (±)-cis-3-(5,6-dihydro-4H-pyrrolo [3,2,1-ij]quinolin-1yl)-4(1H-indol-3-yl)pyrrolidine-2,5-dione or (±)-trans-3-(5,6-dihydro-4H-pyrrolo[3,2,1-ij]quinolin-1-yl)-4(1H-indol-3-yl)pyrrolidine-2,5-dione results in cell death of MDA-MB-231 cells or Paca-2 cells. See, e.g., FIG. 2.

Data set [5] deals with MDA-MB-231 human breast cancer xenograft. The experiment in a line: MDA-MB-231 xenograft, intraperitoneal 80 mg/kg (Example 82). Type of data set: in vivo, mice. The following applies: 80 mg/kg intraperitoneally, 5 days on/2 off, four cycles, DMA/PEG 400. The protocol: Athymic female nude mice (CRL:NU/NU-nuBR) were injected subcutaneously in the flank with MDA-MB-231 human breast cancer cells (8×10^6 cells/mouse). Prior to injection, MDA-MB-231 cells were cultured in DMEM (Invitrogen #11965-092) supplemented with 10% (v/v) heat inactivated fetal bovine serum (FBS), 1% Hepes buffer solution (Invitrogen #15630-080) and 1% Penicillin/Streptomycin (Invitrogen #15140-122) at 37° C. in 5% CO2. Tumors were allowed to grow to approximately 50 mm^3 in size. Animals were randomized into three groups of eight animals per group. At day four post injection, mice with established tumors were treated intraperitoneally with (±)-Cis-3-(5,6-dihydro-4H-pyrrolo[3,2,1-ij]quinolin-1yl)-4(1H-indol-3-yl)pyrrolidine-2,5-dione (80 mg/kg), (±)-Trans-3-(5,6-dihydro-4H-pyrrolo[3,2,1-ij]quinolin-1-yl)-4(1H-indol-3-yl)pyrrolidine-2,5-dione (80 mg/kg) administered in DMA/PEG 400 (1:4 v/v) as the vehicle at 50 mg/ml, or vehicle control intraperitoneally. […] Tumor size was evaluated periodically during the study. For each subject, tumor volume was calculated using the formula (L×W^2)/2 where L and W were the length and width of the tumor, respectively. The arithmetic mean tumor volume was calculated for each treatment group+/−standard error of the mean (SEM). […]

For data set [6] the test system is unchanged. Nature of the data set: MDA-MB-231 xenograft, intraperitoneal 160 mg/kg (Example 81). Type of data set: in vivo, mice. To be noted: 160 mg/kg intraperitoneally, q3d×10, lipiodol vehicle. The protocol:
Athymic female nude mice (CRL:NU/NU-nuBR) were injected subcutaneously in the flank with MDA-MB-231 human breast cancer cells (8×10^6 cells/mouse). Prior to injection, MDA-MB-231 cells were cultured in DMEM (Invitrogen #11965-092) supplemented with 10% (v/v) heat inactivated fetal bovine serum (FBS), 1% Hepes buffer solution (Invitrogen #15630-080) and 1% Penicillin/Streptomycin (Invitrogen #15140-122) at 37° C. in 5% CO2. Tumors were allowed to grow to approximately 50 mm^3 in size. Animals were randomized into three groups of five animals per group. At day ten post injection, mice with established tumors were treated intraperitoneally with (±)-cis-3-(5,6-dihydro-4H-pyrrolo[3,2,1-ij]quinolin-1yl)-4(1H-indol-3-yl) pyrrolidine-2,5-dione (160 mg/kg), (±)-trans-3-(5,6-dihydro-4H-pyrrolo[3,2,1-ij]quinolin-1-yl)-4(1H-indol-3-yl)pyrrolidine-2,5-dione (160 mg/kg) administered in iodinated poppy seed oil (lipiodol) as the vehicle at 10 mg/ml, or vehicle control. Drug or vehicle was administered every three days for a total of ten doses (q3d×10). Tumor size was evaluated periodically during the study. For each subject, tumor volume was calculated using the formula (L×W^2)/2 where L and W were the length and width of the tumor, respectively. The arithmetic mean tumor volume was calculated for each treatment group+/−standard error of the mean (SEM). […]

Data set [7] deals with SK-MEL-28. Nature of the data set: Cell viability MTS assay. Type of data set: cell-based, human. The following applies: 72 hours with compound. A digest of the protocol: as §1
Data set [8] relates to MCF7. The experiment in a line: Cell viability MTS assay. Type of data set: cell-based, human. To be noted: 72 hours with compound. A digest of the protocol: as §1
Data set [9] deals with SKOV-3. Nature of the data set: Cell viability MTS assay. To be noted: 72 hours with compound. Type of data set: cell-based, human. The gist of the method:
as §1

Data set [10] relates to HCT-116. The experiment in a line: Cell viability MTS assay. Type of data set: cell-based, human. To be noted: 72 hours with compound. The gist of the method:
as §1

Data set [11] deals with PC-3. Nature of the data set: Cell viability MTS assay. To be noted: 72 hours with compound. Type of data set: cell-based, human. The gist of the method:
as §1

Data set [12] concerns NCI-H446. The experiment in a line: Cell viability MTS assay. The format is cell-based, human. To be noted: 72 hours with compound. A digest of the protocol: as §1
Data set [13] has as its system NCI-H69. Nature of the data set: Cell viability MTS assay. The format is cell-based, human. The following applies: 72 hours with compound. A digest of the protocol: as §1
The subject of data set [14] is A549. Nature of the data set: Cell viability MTS assay. The format is cell-based, human. To be noted: 72 hours with compound. A digest of the protocol:
as §1

Data set [15] has as its system K562. Nature of the data set: Cell viability MTS assay. The format is cell-based, human. The following applies: 72 hours with compound. The gist of the method:
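Cells seeded 16-24 h, then exposed to serially diluted compound for 72 h (0.33% DMSO final) at 37° C, 5% CO2. Viability read by MTS/PMS reduction over 4 h, absorbance at 490 nm. IC50 is the concentration giving 50% fewer viable cells than DMSO controls, by non-linear regression.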

Data set [16] concerns NCI-H82. Nature of the data set: Cell viability MTS assay. Type of data set: cell-based, human. To be noted: 72 hours with compound. The gist of the method: as §1
The subject of data set [17] is MDA-MB-231 cells. Nature of the data set: Colony counting, surviving fraction (Example 78). Type of data set: cell-based, human. To be noted: two days incubation, colonies counted two weeks later; read-out: IC50 (surviving fraction equaled 50). The protocol:
MDA-MB-231 cells (ATCC# HTB-26), grown in DMEM plus 15% heat inactivated fetal bovine serum plus 10 mM HEPES pH 7.5, were plated in 60 mm plates (2×10^5 cells per plate). After two days candidate compounds in DMSO at various concentrations were diluted in media and added to individual plates such that the final DMSO concentration in the cell culture media was 0.1%. After two days incubation the culture was trypsinized, cells were washed with media, counted using a hemocytometer and 500 cells, including cell bodies, were plated in […] in media. Two weeks later the media was removed and the cell colonies were fixed with methanol for 10 minutes, stained with 1% crystal violet 10 minutes, washed with water and air dried. Cell colonies were visually counted when there were greater then 50 cells present per colony. Plating efficiency was defined as the average number of colonies formed divided by 500. The surviving fraction was defined as the plating efficiency of a candidate compound divided by the plating efficiency of DMSO multiplied by 100. For candidate compound titrations, the IC50 concentration was determined by fitting the equation y=AeBx to the data points and extrapolating the concentration where surviving fraction equaled 50. […]

Setting [18] is: Homo sapiens, MDA-MB-231, 72 hours with compound.
Where [19] appears, read: Homo sapiens, HT-29, 72 hours with compound.

`O=C1NC(=O)[C@@H](c2cn3c4c(cccc24)CCC3)[C@H]1c1c[nH]c2ccccc12` (racemic) [(±)-Cis-3-(5,6-dihydro-4H-pyrrolo[3,2,1-ij]quinolin-1-yl)-4(1H-indol-3-yl)pyrrolidine-2,5-dione]: in [1], the “Protein Kinase C kinase activity in comparison to carrier alone” value is “did not reduce kinase activity”. Also, the values for the concentration for half-maximal inhibition (IC50) in data set [2] (setting [18]), in data set [3] (setting [19]) and in data set [4] were 4.04 µM, 2.89 µM and 0.5 µM, respectively. The “reduction of mean tumor volume compared to vehicle treated control” value in [5] is 73.4%. In addition, the “reduction of normalized mean tumor volume compared to vehicle treated control” value in data set [6] worked out at 80.5%.

For the molecule `COc1cccc(C2=C(c3cn4c5c(cccc35)CCC4)C(=O)NC2=O)c1` [Example 65, 3-(5,6-dihydro-4H-pyrrolo[3,2,1-ij]quinolin-1-yl)-4-(3-methoxyphenyl)-1H-pyrrole-2,5-dione], the melting point lay in the range of 99 to 101 °C. In data set [2] (setting [18]), the IC50 turned out to be 60.8 µM. Besides, the half-maximal inhibitory concentration (IC50) in data set [3] (setting [19]) worked out at 35 µM.

For `O=C1NC(=O)[C@@H](c2cn3c4c(cccc24)CCC3)[C@@H]1c1c[nH]c2ccccc12` [(+)-3(S),4(R)-3-(5,6-dihydro-4H-pyrrolo[3,2,1-ij]quinolin-1-yl)-4(1H-indol-3-yl)pyrrolidine-2,5-dione], the IC50 in [7] is 25.5 µM; in [8] it was over 100 µM; in [2] (72 hours with compound), 26.8 µM; in data set [9], 4.45 µM; in [10], 14.4 µM; in data set [11] it was 18.7 µM. The concentration for half-maximal inhibition (IC50) in data set [3] (72 hours with compound) turned out to be 30.1 µM; in data set [12] it was 8.55 µM; in [13] it was 10.5 µM; in [14], 27.9 µM; in [15], 4.52 µM; in data set [16], 9.83 µM. The IC50 in data set [17] turned out to be 4.1 µM.

`O=C1NC(=O)[C@@H](c2cn3c4c(cccc24)CCC3)[C@@H]1c1ccc(O)cc1` (racemic) [Example 72, (±)-Trans-3-(5,6-dihydro-4H-pyrrolo[3,2,1-ij]quinolin-1-yl)-4-(4-hydroxyphenyl)pyrrolidine-2,5-dione]: the melting point was 105 to 107 °C. The concentration for half-maximal inhibition (IC50) in data set [2] (setting [18]) is over 100 µM. In addition, the IC50 in data set [3] (setting [19]) was over 100 µM.

In turn, `O=C1NC(=O)[C@@H](c2cn3c4c(cccc24)CCC3)[C@@H]1c1cccc(O)c1` (racemic) [Example 69, (±)-Trans-3-(5,6-dihydro-4H-pyrrolo[3,2,1-ij]quinolin-1-yl)-4-(3-hydroxyphenyl)pyrrolidine-2,5-dione] displayed a melting point of 108 to 110 °C. Besides, the concentration for half-maximal inhibition (IC50) in [2] (setting [18]) was 65.9 µM. Further, the IC50 in data set [3] (setting [19]) was 55.4 µM.

With `O=C1NC(=O)C(c2cn3c4c(cccc24)CCC3)=C1c1ccc(OCc2ccccc2)cc1` [Example 66, 3-[4-(benzyloxy)phenyl]-4-(5,6-dihydro-4H-pyrrolo[3,2,1-ij]quinolin-1-yl)-1H-pyrrole-2,5-dione], the melting point lay within 262 to 265 °C. The IC50 in data set [2] (setting [18]) is over 100 µM. For the same molecule, the half-inhibitory concentration (IC50) in [3] (setting [19]) was over 100 µM.

Take `COc1cccc([C@@H]2C(=O)NC(=O)[C@H]2c2cn3c4c(cccc24)CCC3)c1` (racemic) [Example 68, (±)-Trans-3-(5,6-dihydro-4H-pyrrolo[3,2,1-ij]quinolin-1-yl)-4-(3-methoxyphenyl)pyrrolidine-2,5-dione]: the melting point is 87 to 91 °C. The IC50 in [2] (setting [18]) was 14.7 µM. In addition, in data set [3] (setting [19]), the concentration for half-maximal inhibition (IC50) came to 3.06 µM.
